Source: patent US7612065B2, “Inhibitors of c-JUN N-terminal kinases (JNK)” (priority 2007, dated 2009)

Molecular target: T1, JNK3 (Homo sapiens, UniProt P53779)
T1 construct: One such construct encodes amino acid residues Ser40-Glu402 of JNK3α1 and is preceded by Met and Gly residues; Met-Gly (initiation methionine plus glycine added for the NcoI site); made in house; host or cells: E. coli BL21 (DE3)
Test: JNK inhibition assay: spectrophotometric coupled-enzyme assay with activated JNK3
Format: biochemical
Conditions: activated JNK3 10 nM, 10 μM ATP, 200 μM EGF receptor peptide, 30° C., competitive inhibition model
In short: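 Activated (doubly phosphorylated, MKK7(DD)-activated) human JNK3, 10 nM, preincubated 10 min at 30 °C with inhibitor in 0.1 M HEPES pH 7.5, 10 mM MgCl2, 200 μM EGF receptor peptide, PK/LDH-coupled. Started with 10 μM ATP; A340 decrease followed at 30 °C. Ki from competitive inhibition model fit.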

T1 sequence (P53779 40-402): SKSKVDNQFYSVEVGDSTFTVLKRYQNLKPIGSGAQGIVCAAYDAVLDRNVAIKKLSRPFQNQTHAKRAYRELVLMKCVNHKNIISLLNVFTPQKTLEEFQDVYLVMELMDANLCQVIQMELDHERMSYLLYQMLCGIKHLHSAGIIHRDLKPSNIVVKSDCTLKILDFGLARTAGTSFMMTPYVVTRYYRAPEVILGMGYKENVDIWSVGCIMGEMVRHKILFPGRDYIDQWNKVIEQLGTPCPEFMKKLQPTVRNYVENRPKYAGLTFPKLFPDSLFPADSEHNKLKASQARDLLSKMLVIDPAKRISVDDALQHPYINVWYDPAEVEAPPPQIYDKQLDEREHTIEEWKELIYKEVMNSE

| Ki | Structure (SMILES) |
| --- | --- |
| ≥ 1000 nM | C[C@H](NC(=O)OCC1c2ccccc2-c2ccccc21)C(=O)Nc1ccc2c(c1)N(Cc1cc(F)cc3c1OCOC3)C(=O)/C2=N\O [Compound 352] |
| < 1000 nM | O=C(c1ccc2c(c1)/C(=N\O)C(=O)N2Cc1cc(F)cc2c1OCOC2)c1cccc(Cl)c1Cl [Compound 355] |
| < 1000 nM | O=C(c1ccc2c(c1)/C(=N\O)C(=O)N2Cc1cc(F)cc2c1OCOC2)c1ccccc1Cl [Compound 356] |
